In the supplement of paper PMC10307832:

How the values were obtained:
Assay in all cases: relative viability (nuclei count vs DMSO), 5 days (fraction); higher = more cells survive
[1] = compound: C1CC(C1)(C(=O)O)C(=O)O.[NH2-].[NH2-].[Pt+2] [Carboplatin] + Nc1nc2[nH]cc(CCc3ccc(C(=O)N[C@@H](CCC(=O)O)C(=O)O)cc3)c2c(=O)[nH]1 [Pemetrexed] (partner 0.2 µM)
Outline: (§1)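 Lung cancer cell lines in 1536-well plates were dosed by pin tool the day after seeding, either with one drug alone or with a fixed anchor-drug dose plus five library-drug doses (not always all listed) in √10 steps. After 5 days, cells were fixed and their nuclei stained in one step (final 0.05% Triton X-100, 1% formaldehyde, 1 ug/ml Hoechst), then counted on 4× images. Relative viability is the nuclei count in treated wells divided by that in vehicle wells. Values are medians of duplicate plates.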

[2] = compound: CC[C@H](C)N1C=C(C2=C(C=C(C=C21)C3=CN=C(C=C3)N4CCNCC4)C(=O)NCC5=C(C=C(NC5=O)C)C)C [GSK126] + COc1cc2c(Oc3ccc(NC(=O)C4(C(=O)Nc5ccc(F)cc5)CC4)cc3F)ccnc2cc1OCCCN1CCOCC1 [Foretinib] (partner 0.25 µM)
Outline: as §1

[3] = compound: CC[C@H](C)N1C=C(C2=C(C=C(C=C21)C3=CN=C(C=C3)N4CCNCC4)C(=O)NCC5=C(C=C(NC5=O)C)C)C [GSK126] + CS(=O)(=O)N1CCN(Cc2cc3nc(-c4cccc5[nH]ncc45)nc(N4CCOCC4)c3s2)CC1 [Pictilisib] (partner 1 µM)
Outline: as §1

[4] = compound: NS(=O)(=O)OC[C@@H]1C[C@@H](n2ccc3c(N[C@H]4CCc5ccccc54)ncnc32)C[C@@H]1O [MLN4924] + Cc1nc(NC(=O)N2CCC[C@H]2C(N)=O)sc1-c1ccnc(C(C)(C)C(F)(F)F)c1 [Alpelisib] (partner 2 µM)
Outline: as §1

| Cell Line | relative viability ([1]; first compound 0.08 µM) | relative viability ([1]; first compound 0.253 µM) | relative viability ([1]; first compound 0.8 µM) | relative viability ([1]; first compound 2.53 µM) | relative viability ([1]; first compound 8 µM) | relative viability ([2]; first compound 0.08 µM) | relative viability ([2]; first compound 0.253 µM) | relative viability ([2]; first compound 0.8 µM) | relative viability ([2]; first compound 2.53 µM) | relative viability ([2]; first compound 8 µM) | relative viability ([3]; first compound 0.08 µM) | relative viability ([3]; first compound 0.253 µM) | relative viability ([3]; first compound 0.8 µM) | relative viability ([3]; first compound 2.53 µM) | relative viability ([3]; first compound 8 µM) | relative viability ([4]; first compound 0.04 µM) | relative viability ([4]; first compound 0.1265 µM) | relative viability ([4]; first compound 0.4 µM) | relative viability ([4]; first compound 1.265 µM) | relative viability ([4]; first compound 4 µM) |
| --- | --- | --- | --- | --- | --- | --- | --- | --- | --- | --- | --- | --- | --- | --- | --- | --- | --- | --- | --- | --- |
| LC-2-ad | 0.278 | 0.28 | 0.294 | 0.308 | 0.272 | 1.08 | 0.971 | 0.915 | 0.995 | 1.07 | 0.506 | 0.687 | 0.647 | 0.522 | 0.567 | 0.834 | 0.729 | 0.41 | 0.153 | 0.0751 |
| LCLC-97TM1 | 0.171 | 0.164 | 0.155 | 0.161 | 0.175 | 1.03 | 0.942 | 0.954 | 1.06 | 0.994 | 0.22 | – | 0.229 | 0.285 | 0.18 | 0.255 | 0.208 | 0.129 | 0.114 | 0.119 |
| LCLC-103H | 0.448 | 0.479 | 0.468 | 0.517 | 0.474 | 0.86 | 0.744 | 0.738 | 0.926 | 0.814 | 0.712 | 0.555 | 0.683 | 0.626 | 0.658 | 1.14 | 1.18 | 1.12 | 0.234 | 0.342 |
| LK-2 | 0.336 | 0.314 | 0.273 | 0.233 | 0.289 | 1.44 | 1.33 | 1.28 | 1.15 | 1.19 | 0.772 | 0.54 | 0.637 | 0.658 | 0.486 | 0.991 | 0.886 | 0.667 | 0.267 | 0.299 |
| LOU-NH91 | 0.348 | 0.378 | 0.372 | 0.381 | 0.378 | 0.991 | 0.953 | 0.892 | 0.974 | 0.969 | 0.519 | 0.501 | 0.557 | 0.524 | 0.545 | 0.804 | 1.02 | 0.855 | 0.407 | 0.476 |
| LU99A | 0.174 | 0.157 | 0.188 | 0.18 | 0.16 | 0.826 | 0.838 | 0.74 | 0.746 | 0.694 | 0.33 | 0.32 | 0.284 | 0.342 | 0.362 | 0.418 | 0.244 | 0.299 | 0.173 | 0.153 |
| LXF-289 | 0.981 | 0.998 | 0.902 | 0.895 | 0.744 | 0.962 | 1.01 | 0.952 | 0.973 | 1.02 | 0.835 | 0.791 | 0.732 | 0.769 | 0.8 | 0.814 | 0.715 | 0.452 | 0.231 | 0.142 |
| NCI-H23 | 0.707 | 0.648 | 0.634 | 0.564 | 0.631 | 1 | 0.313 | 0.901 | 1.03 | 0.98 | 0.535 | 0.568 | 0.418 | 0.466 | 0.512 | 0.611 | 0.5 | 0.28 | 0.149 | 0.155 |
